Test results taken from publication PMC3079055 (Archives of biochemistry and biophysics, 2011).

How the values were obtained:
[1] = biological target: C. albicans CYP51F1 wild-type (Candida albicans, UniProt P10613); experiment: Spectral binding titration of purified CYP51F1 wild type
[2] = biological target: C. albicans CYP51F1 Y132H mutant (Candida albicans, UniProt P10613, Y132H); experiment: Spectral binding titration of purified CYP51F1 Y132H mutant
[3] = biological target: C. albicans CYP51F1 R467K mutant (Candida albicans, UniProt P10613, R467K); experiment: Spectral binding titration of purified CYP51F1 R467K mutant
[4] = biological target: C. albicans CYP51F1 F105L mutant (Candida albicans, UniProt P10613, F105L); experiment: Spectral binding titration of purified CYP51F1 F105L mutant
[5] = biological target: C. albicans CYP51F1 D116E mutant (Candida albicans, UniProt P10613, D116E); experiment: Spectral binding titration of purified CYP51F1 D116E mutant

| SMILES | Kd [1] [nM] | Kd [2] [nM] | Kd [3] [nM] | Kd [4] [nM] | Kd [5] [nM] |
| --- | --- | --- | --- | --- | --- |
| OC(Cn1cncn1)(Cn1cncn1)c1ccc(F)cc1F [Fluconazole, fluconazole] | 60 ± 10 | 150 ± 60 | 60 ± 10 | 20 ± 10 | 30 ± 10 |
| CCC(C)n1ncn(-c2ccc(N3CCN(c4ccc(OCC5COC(Cn6cncn6)(c6ccc(Cl)cc6Cl)O5)cc4)CC3)cc2)c1=O (centres unmarked) [Itraconazole, itraconazole] | 190 ± 60 | – | 180 ± 40 | 160 ± 40 | 150 ± 30 |
| CC(C)=CCC[C@@H](C)[C@H]1CC[C@@]2(C)C3=C(CC[C@]12C)[C@@]1(C)CC[C@H](O)C(C)(C)[C@@H]1CC3 [lanosterol, Lanosterol] | 6700 | – | – | – | – |
| Clc1ccc(COC(Cn2ccnc2)c2ccc(Cl)cc2Cl)cc1 (centres unmarked) [Econazole, econazole] | 200 ± 40 | 420 ± 60 | 130 ± 30 | 100 ± 30 | 140 ± 30 |
| CC(=O)N1CCN(c2ccc(OCC3COC(Cn4ccnc4)(c4ccc(Cl)cc4Cl)O3)cc2)CC1 (centres unmarked) [Ketoconazole, ketoconazole] | 420 ± 80 | 540 ± 70 | 660 ± 130 | 170 ± 40 | 430 ± 80 |
